{"source": "patent US7998970B2", "about": "“Use of finasteride, dutasteride and related compounds for the prevention or treatment of neurologically-associated disorders” (ProteoSys AG, priority 2004, dated 2011)", "key": {"[1]": {"system": "neurons derived from D3 embryonic stem (ES) cells", "test": "Chemical ischemia-induced neuronal death and neuroprotection, cell culture model", "format": "cell-based, mouse", "settings": "for EC50: Mus musculus, Neuron, read-out: EC50 of neuroprotective effect, chemical ischemia; for neuroprotective effect compared between compounds: each 1 μM, FIG. 3", "protocol": "(§1) For all experiments, D3 embryonic stem (ES) cells derived from 129/sv mice [Okabe et al., 1996] were cultivated for 12 days, with passages on days 2, 4, 7 and 9 as described previously [Sommer et al., 2004]. Insult conditions: Cells (24-well plates) were pre-incubated with or without 20 nM EPO (neuroprotective agent, positive control) in fresh medium for 24 hours at 37° C. Cells were rinsed once with low K^+ solution (140 mM NaCl, 4.7 mM KCl, 1.2 mM KH2PO4, 2.5 mM CaCl2, 1.2 mM MgSO4, 11 mM glucose, 15 mM Hepes-NaOH, pH 7.35). Cells (either with or without EPO pre-incubation) were incubated for up to 45 min (37° C.) with either low K^+ solution or with glucose-free low K^+ solution supplemented with 1 mM KCN chemical ischemia solution [Kume et al., 2002, Schrattenholz et al., 2005]. This insult relates to ischemic conditions in stroke. In addition similar cellular insults were established using glutamatergic agonists to induce excitotoxicity (Sommer et al., 2004) and respective neuroprotection related to stroke and epilepsy; and β-amyloid induced toxicity (incubation of neurons with 10 μM β-amyloid1-40 for 10 min, resulting in Ca-influx and neuronal death) and respective rescue related to Alzheimer's disease. Vitality control to assess numbers of surviving neurons was performed in all of these cases by a brief stimulation with a low dose of glutamate (10 μM). Afterwards, cells were washed three times with ice cold phosphate buffered saline (PBS), and then proteins were harvested. Suspended cells were pelleted at 500×G, and lysed into 9M urea 4% CHAPS. The cell lysate was desalted with a NAP-10 column (Amersham Biosciences), preequilibrated with the same buffer, and protein content was determined.\nFunctional tests by calcium imaging were performed essentially as described [Sommer et al., 2004]. Briefly, cells were loaded with 2 μM of fura-2 AM in DMEM for 45 min at 37° C. in the dark. Measurements of relative changes in [Ca^2+] were made on an inverted epifluorescence microscope (Olympus IX70 S1F2) with a Polychrom IV Monochromator (Xe-lamp, USHIO). Excitation wavelengths (λ1, λ2) and the emission wavelength were 340, 380 and 510 nm, respectively. Acquisition and analysis of data after appropriate stimulation were performed by using MetaFluor software (Universal Imaging Corporation). Image resolution was 168×129 pixels (binning 8×8, pixel size 6.8×6.8 μm). Only cells identified as neurons by morphological criteria and occasional immunostaining (not shown) and those whose calcium levels returned to the resting state after the first stimulation were taken into account. Controls included nominal zero calcium (negative) and 5 μM ionomycin (positive), 10 μM glutamate (positive) and depolarisation (55 mM K+) (positive). Pharmacological agents were applied by a multi-valve, single-output focal drug application device (ALA Scientific) with the perfusion system DAD-12. […] During each stimulation event 20 image pairs were acquired."}, "[2]": {"system": "neurons derived from D3 embryonic stem (ES) cells", "test": "Excitotoxic paradigm (100 μM NMDA), neuroprotection in cell culture model", "format": "cell-based", "protocol": "as §1\n(§2) Functional tests by calcium imaging were performed essentially as described [Sommer et al., 2004]. Briefly, cells were loaded with 2 μM of fura-2 AM in DMEM for 45 min at 37° C. in the dark. Measurements of relative changes in [Ca^2+] were made on an inverted epifluorescence microscope (Olympus IX70 S1F2) with a Polychrom IV Monochromator (Xe-lamp, USHIO). Excitation wavelengths (λ1, λ2) and the emission wavelength were 340, 380 and 510 nm, respectively. Acquisition and analysis of data after appropriate stimulation were performed by using MetaFluor software (Universal Imaging Corporation). Image resolution was 168×129 pixels (binning 8×8, pixel size 6.8×6.8 μm). Only cells identified as neurons by morphological criteria and occasional immunostaining (not shown) and those whose calcium levels returned to the resting state after the first stimulation were taken into account. Controls included nominal zero calcium (negative) and 5 μM ionomycin (positive), 10 μM glutamate (positive) and depolarisation (55 mM K+) (positive). […]"}, "[3]": {"system": "neurons derived from D3 embryonic stem (ES) cells", "test": "β-amyloid-induced neuronal death (10 μM Aβ1-40), rescue in cell culture model", "format": "cell-based", "protocol": "as §1, §2"}, "β-amyloid plaques": {"system": "β-amyloid plaques", "test": "In vivo assay of β-amyloid plaque formation in a mouse model of Alzheimer's disease (APPPS mice)", "protocol": "A quite aggressive model for Alzheimer's disease is a double transgenic mouse line expressing mutated human amyloid precursor protein (APP) and presinilin-1 (PS). Between months 4 and 5 a maximal additional increase of the plaque load of 35-40% can be expected (exponential fit, FIG. 9).\nDutasteride was administered orally every day after animals became 4 months old, for 30 days at a maximum concentration of 2 mg/day.\nTechnically, images were recorded from whole brain sections (Olympus Fluorescence microscope AX70, Digital camera Casio QV4000; resolution 2240×1680 Pixel, with constant overall intensity in all images) A software-assisted procedure was then used to quantify overall areas of NT12 stain (anti-β-amyloid stain) (plaque area), and NT12 stain volumes in these areas by defining thresholds and relating them to overall proportions of respective slices (plaque volume)."}, "G361 cells": {"system": "G361 cells", "test": "Autophagy-related assay employing WIPI-staining", "format": "cell-based, human", "settings": "0.25, 0.5, 1.0 or 2.0 μM tested; FIG. 7", "method": "The presence of autophagy is quantified by a polyclonal hWIPI-1 antiserum, which was generated by immunizing rabbits (Charles River) with two synthetic peptides representing C-terminal regions in hWIPI-1 (363nkendlrpslp373, 407lrgevipehefatgpv422) and used at a dilution of 1:5000 in ECLWestern blotting detections (Amersham), and at 1:250 for indirect immunofluorescent stainings.\nFor these stainings, cells were fixed in 3.7% paraformaldehyde (15 min, RT) and analysed by confocal microscopy (see below). To visualize endogenous hWIPI-1 in G361 cells consecutive incubations were conducted using C-terminal hWIPI-1 antiserum at 1:250 (30 min, RT) and Alexa 546 or Alexa 488 labelled goat anti-rabbit IgG (Molecular Probes) at 1:500 (30 min, RT) in PBS/0.1% Tween (blocking/permeabilization: PBS/0.1% Tween/1% BSA, 30 min RT; washing: PBS/0.1% Tween). For nuclear staining, TO-PRO-3 (Molecular Probes) was used at 1:1000. Finally, cells were mounted in Vectashield Mounting Medium (Vector Laboratories) and kept in the dark (41C). Confocal laser scanning microscopy was conducted using a LSM510 microscope (Zeiss) and a 63— 1.4 DIC Plan-Apochromat oil-immersion objective. GFP and Alexa 488 were excited at 488 nm with the internal argon-ion laser. Alexa 546 and TO-PRO-3, respectively, were excited at 543 and 633 nm with helium-neon lasers. […]"}, "[4]": {"system": "mitochondrial permeability transition pore (MPTP)", "test": "Functional test of the MPTP by Rhodamine-123 assay", "format": "cell-based, mouse", "settings": "for inhibition of release of Rhodamine-123 from mitochondria after opening of the MPTP: 0.5, 1, 10, 20 μM, FIG. 6", "protocol": "Ant1 is one of the essential components of the MPTP, and thus was tested functionally by a fluorescent assay described by Metzger et al. (Metzger et al. Optical assessment of motoneuron function in a “twenty-four-hour” acute spinal cord slice model from fetal rats. Journal of Neuroscience Methods 141, 2005, 309320). Briefly, cells were incubated with Rhodamine-123 ([…]) at 37° C. for 20 min. Rhodamine-123 was dissolved at 5 mg/ml in ethanol. For measurements of the membrane potential ψ, cells loaded with Rhodamine-123 were excited at 480 nm and emission was monitored at 565 nm. The lipophilic cation Rhodamine-123 accumulates in mitochondria where its fluorescence intensity is quenched at high concentrations (Chen, 1988; Scaduto and Grotyohann, 1999). A depolarizing change of ψ is indicated by an increase in the intensity of fluorescence in response to dequenching of the dye after release from mitochondria (Emaus et al., 1986; Duchen, 1992, 2000). Thus we refer to the relative change in ψ as the percentage change in Rhodamine-123 fluorescence (Schuchmann et al., 2000)."}, "Kv1.5+Kvβ2.1": {"target": "T1, Kv1.5+Kvβ2.1 (Homo sapiens, UniProt Q13303)", "T1 construct": "expressed in transfected cells; host or cells: Xenopus oocytes", "T1 sequence (Q13303 whole entry)": "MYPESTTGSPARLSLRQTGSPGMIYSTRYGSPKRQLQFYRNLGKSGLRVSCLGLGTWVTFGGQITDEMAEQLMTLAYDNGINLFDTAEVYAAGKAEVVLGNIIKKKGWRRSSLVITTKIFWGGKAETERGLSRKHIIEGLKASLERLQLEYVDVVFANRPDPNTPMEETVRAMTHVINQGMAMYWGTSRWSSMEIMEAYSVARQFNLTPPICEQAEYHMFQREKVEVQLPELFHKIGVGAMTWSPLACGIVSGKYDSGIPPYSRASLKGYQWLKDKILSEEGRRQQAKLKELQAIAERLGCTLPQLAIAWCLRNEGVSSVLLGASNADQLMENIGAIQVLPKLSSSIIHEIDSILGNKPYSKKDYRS", "T1 sequence (P22460 whole entry partner)": "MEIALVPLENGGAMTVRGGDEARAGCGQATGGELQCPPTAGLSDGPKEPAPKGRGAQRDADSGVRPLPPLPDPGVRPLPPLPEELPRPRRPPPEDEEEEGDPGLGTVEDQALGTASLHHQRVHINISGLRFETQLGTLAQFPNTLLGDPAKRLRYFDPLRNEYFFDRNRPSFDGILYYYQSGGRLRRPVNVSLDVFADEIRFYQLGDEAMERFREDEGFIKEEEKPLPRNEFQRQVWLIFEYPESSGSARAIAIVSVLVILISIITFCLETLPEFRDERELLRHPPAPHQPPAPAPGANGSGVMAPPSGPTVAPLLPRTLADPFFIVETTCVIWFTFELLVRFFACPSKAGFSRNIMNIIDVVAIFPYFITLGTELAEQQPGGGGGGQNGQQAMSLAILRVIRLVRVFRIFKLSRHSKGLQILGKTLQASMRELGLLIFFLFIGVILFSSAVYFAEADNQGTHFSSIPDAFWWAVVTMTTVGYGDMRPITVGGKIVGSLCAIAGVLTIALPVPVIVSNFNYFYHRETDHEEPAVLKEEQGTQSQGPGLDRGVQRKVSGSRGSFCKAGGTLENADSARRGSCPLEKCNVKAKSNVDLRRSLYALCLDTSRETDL", "test": "K+ channel electrophysiology, inside-out patches of transfected Xenopus oocytes", "format": "cell-based", "settings": "1 μM Finasteride; Xenopus oocytes with Kv1.5 and Kvβ2.1, inside-out patches, FIG. 5", "protocol": "Xenopus oocytes were transfected with various subunit combinations of potassium channels, like Kv1.5+Kvβ2.1. Subsequently activation curves using inside-out patches (external: 2 mM K^+, internal: 96 mM K^+) were measured, they represent IV-curves using standard internal buffer solution (HK+), which were recorded in the presence and absence of 1 μM Finasteride. Corresponding plots of G/Gmax versus the membrane potential were used to evaluate related effects."}, "[5]": {"settings": "Mus musculus, Neuron; read-out: EC50 of neuroprotective effect, excitotoxic paradigm (100 μM NMDA)"}, "[6]": {"settings": "Mus musculus, Neuron; read-out: EC50 of neuroprotective effect, β-amyloid toxicity (10 μM Aβ 1-40)"}, "[7]": {"settings": "oral, 30 days, months 4 to 5, plaque area or plaque volume, order not stated"}}, "note": "Counter-ions that a name gives are not always drawn."}
{"molecule": "CC12CCC3C(CC[C@H]4NC(=O)CCC34C)C1CCC2C(=O)NCCN", "note": "(stereo partly drawn) [AEOAA, 4α,6α-dimethyl-2-oxo-hexadecahydro-indeno[5,4-f]quinoline-7-carboxylic-(2-amino-ethyl)-amide hydrochloride]", "values": [{"measurement": "EC50", "setting": "[1]", "value": 5000, "unit": "nM"}, {"measurement": "neuroprotective effect compared between compounds", "setting": "[1]", "value": "considerably less active"}, {"measurement": "EC50", "setting": "[2]; [5]", "value": 5, "unit": "µM"}, {"measurement": "EC50", "setting": "[3]; [6]", "value": 4000, "unit": "nM"}]}
{"molecule": "CC12CCC3C(CC[C@H]4NC(=O)CCC34C)C1CCC2C(=O)O", "note": "(stereo partly drawn) [COAAA, 4α,6α-di methyl-2-oxo-hexadecahydro-indeno[5,4-f]quinoline-7-carboxylic-acid]", "values": [{"measurement": "EC50", "setting": "[1]", "value": 1000, "unit": "nM"}, {"measurement": "neuroprotective effect compared between compounds", "setting": "[1]", "value": "nearly as efficacious"}, {"measurement": "EC50", "setting": "[2]; [5]", "value": 5, "unit": "µM"}, {"measurement": "EC50", "setting": "[3]; [6]", "value": 2000, "unit": "nM"}]}
{"molecule": "C[C@]12C=CC(=O)N[C@@H]1CC[C@@H]1[C@@H]2CC[C@]2(C)[C@@H](C(=O)Nc3cc(C(F)(F)F)ccc3C(F)(F)F)CC[C@@H]12", "note": "[Dutasteride, 5α,17β-N-[2,5-bis(trifluoromethyl)phenyl]-3-oxo-4-azaandrost-1-ene-17-carboxamide]", "values": [{"measurement": "EC50", "setting": "[1]", "value": 300, "unit": "nM"}, {"measurement": "neuroprotective effect compared between compounds", "setting": "[1]", "value": "comparable and strongest"}, {"measurement": "EC50", "setting": "[2]; Mus musculus, Neuron, read-out: EC50 of neuroprotective effect, excitotoxic paradigm (100 μM NMDA)", "value": 1.5, "unit": "µM"}, {"measurement": "overall reduction of plaque load versus non-treated controls, first value of 'respectively'", "setting": "β-amyloid plaques; [7]", "value": 12, "unit": "%"}, {"measurement": "overall reduction of plaque load versus non-treated controls, second value of 'respectively'", "setting": "β-amyloid plaques; [7]", "value": 13, "unit": "%"}, {"measurement": "load of β-amyloid plaques (NT12 stain) in treated versus non-treated group", "setting": "β-amyloid plaques; oral, daily for 30 days from month 4, max 2 mg/day, cortical slices, FIG. 8", "value": "significantly lower"}, {"measurement": "reduction of the plaque load relative to the increase expected between months 4 and 5", "setting": "β-amyloid plaques; related to expected increase of 35-40%", "value": "30-32.5%"}, {"measurement": "EC50", "setting": "[3]; Mus musculus, Neuron, read-out: EC50 of neuroprotective effect, β-amyloid toxicity (10 μM Aβ 1-40)", "value": 100, "unit": "nM"}, {"measurement": "enhancement of autophagy in surviving G361 cells", "setting": "G361 cells", "value": "dose-dependent effect"}, {"measurement": "inhibition of release of Rhodamine-123 from mitochondria after opening of the MPTP", "setting": "[4]", "value": "dose-dependent"}, {"measurement": "inhibition of MPTP-formation and opening during ischemic conditions", "setting": "[4]; neural derivatives of embryonic stem cells", "value": "marked and significant inhibition"}]}
{"molecule": "CC(C)(C)NC(=O)[C@H]1CC[C@H]2[C@@H]3CC[C@H]4NC(=O)C=C[C@]4(C)[C@H]3CC[C@]12C", "note": "[Finasteride, 17β-(N-tert-butylcarbamoyl)-4-aza-5α-androst-1-en-3-one]", "values": [{"measurement": "protection against neuronal death induced by chemical ischemia", "setting": "[1]; 100 nM-1 μM present during the ischemic insult, FIG. 2", "value": "substantial protection"}, {"measurement": "surviving rate of neurons after chemical ischemia", "setting": "[1]; 1 μM, control cells 4.8±3.4%", "value": "72.1±4.4", "unit": "%"}, {"measurement": "EC50", "setting": "[1]", "value": 300, "unit": "nM"}, {"measurement": "concentration at which the neuroprotective effect peaks", "setting": "[1]; dose response, FIG. 2", "value": "about 1 μM"}, {"measurement": "neuroprotective effect compared between compounds", "setting": "[1]", "value": "comparable and strongest"}, {"measurement": "EC50", "setting": "[2]; [5]", "value": 2, "unit": "µM"}, {"measurement": "EC50", "setting": "[3]; [6]", "value": 100, "unit": "nM"}, {"measurement": "shift of the IV-curve (G/Gmax versus membrane potential)", "setting": "Kv1.5+Kvβ2.1", "value": "small shift of the IV-curve towards more negative potential"}, {"measurement": "enhancement of autophagy in surviving G361 cells", "setting": "G361 cells", "value": "dose-dependent effect"}, {"measurement": "inhibition of release of Rhodamine-123 from mitochondria after opening of the MPTP", "setting": "[4]", "value": "dose-dependent"}]}
